Measured values from patent US20200163984A1, “USE OF ISOVALERYL SPIRAMYCIN I, II AND/OR III IN MANUFACTURING MEDICAMENT FOR TREATING AND/OR PREVENTING TUMOR, AND MEDICAMENT” (SHENYANG FUYANG PHARMACEUTICAL TECHNOLOGY CO., LTD., priority 2017, published 2020).

Columns and labels:
[1] = test system: transplanted tumor of human renal cell adenocarcinoma cell 769-P; experiment: 769-P transplanted tumor in nude mice; conditions: for Tumor Volume (mm3) (d 1): d1
Description: (§1) Then cell concentration was adjusted to 1×10^7/ml with matrigel, then each nude mouse was inoculated subcutaneously with 0.2 ml of cells at its right armpit and recorded as the first day of inoculation. When the tumor grows to be greater than or equal to 100 mm^3, the mice were randomly divided into 11 groups with 6 mice in each group: a model group, a cyclophosphamide group, isovaleryl spiramycin I groups with doses of 25, 50 and 100 mg/kg, isovaleryl spiramycin II groups with doses of 25, 50 and 100 mg/kg, and isovaleryl spiramycin III groups with doses of 25, 50 and 100 mg/kg. Each group was continuously administered intragastrically for 30 days with a dose of 20 ml/kg. The mice were sacrificed the next day after drug withdrawal and the indicators were tested. The long diameter and short diameter of the tumor, and the weight of each mouse were recorded every 3 days from drug administration to nude mouse sacrifice.
(§2) The body weight of the nude mice and the long diameter (a) and short diameter (b) of the transplanted tumor were measured every 3 days, and the tumor volume (v), relative tumor volume (RTV) and relative tumor proliferation rate (T/C) are calculated respectively according to the following formulas, wherein V=a×b^2/2; RTV=V/V0 (V0 is the tumor volume before administration, V is the tumor volume before sacrifice), and T/C (%)=treatment group RTV/model control group RTV×100%.
(§3) Each mouse was weighed and sacrificed. After the tumor was completely stripped off from the body of the mouse, the non-tumor tissues such as blood stains and fat were removed to weigh the tumor and calculate the tumor growth inhibition rate. The average tumor weight of each group of mice is used as an indicator of efficacy. Tumor growth inhibition rate (%)=(1−the average tumor weight of the treatment group/the average tumor weight of the model group)×100%.

[2] = test system: transplanted tumor of HL60 cells; experiment: HL-60 transplanted tumor in nude mice; conditions: for Tumor Volume (mm3) (d30): d 30
Description: as §1, with “HL-60 cells in a logarithmic growth phase were taken and subjected to a trypan blue exclusion experiment showing that the cell viability was more than 95%, then the cells were subjected to trypsinization, centrifugation, and supernatant removal. Then” for “Then”, “group:” for “group: a model group, a cyclophosphamide group,”
as §2, §3

[3] = test system: transplanted tumor of mouse H22 liver cancer; experiment: Transplanted tumor of mouse H22 liver cancer; conditions: for Tumor Volume (mm3) (d30): d 30; for Body Weight (g) (d1) / Body Weight (g) (d 7): mouse, in vivo
Description: The H22 cell strains cryopreserved in liquid nitrogen were resuscitated in Kunming mice. After 3 generations, the ascites of Kunming mice were taken and placed in a 50 ml centrifuge tube in which 10 ml of 0.9% normal saline was added, and then centrifuging was performed at 1000 rpm for 5 min at room temperature, and the obtained supernatant was removed. Then 10 ml of 0.9% normal saline was added to the tube to blow and mix well, and then the mixture was diluted to 5×10^6 live cells/ml with normal saline after counting. The tube was stored in ice water, and 75% ethanol was used to disinfect the skin under the right armpits of the mice. Each Kunming mouse was soon inoculated subcutaneously with 0.2 ml of the cells at the armpit of the right forelimb.
In the H22 liver cancer model, the mice inoculated with the tumor were randomly divided into groups with 10 mice in each group on the next day of inoculation. The groups included: a model control group, a positive drug cyclophosphamide control group (CTX, 26 mg/kg), isovaleryl spiramycin I groups with doses of 13, 26 and 52 mg/kg; isovaleryl spiramycin II groups with doses of 13, 26 and 52 mg/kg; isovaleryl spiramycin III groups with doses of 13, 26 and 52 mg/kg. Each group was continuously administered intragastrically for 7 days with a dose of 20 ml/kg.
The tumor-bearing mice were weighed and sacrificed the next day after the last administration. The subcutaneous tumors were dissected and weighed. The average tumor weight of each group is calculated, and the tumor inhibition rate is calculated.
Tumor inhibition rate=(1−T/C)×100%
T: average tumor weight of the drug-administered group; C: average tumor weight of the blank control group.

[4] = 769-P, high dose (100 mg/kg in method) i.g. 30 days
[5] = 769-P, low dose (25 mg/kg in method) i.g. 30 days
[6] = 769-P, medium dose (50 mg/kg in method) i.g. 30 days
[7] = HL-60, high dose (100 mg/kg in method) i.g. 30 days
[8] = HL-60, low dose (25 mg/kg in method) i.g. 30 days
[9] = HL-60, medium dose (50 mg/kg in method) i.g. 30 days

## CO[C@@H]1[C@@H](O[C@@H]2O[C@H](C)[C@@H](O[C@H]3C[C@@](C)(O)[C@@H](OC(=O)CC(C)C)[C@H](C)O3)[C@H](N(C)C)[C@H]2O)[C@@H](CC=O)C[C@@H](C)[C@@H](O[C@H]2CC[C@H](N(C)C)[C@@H](C)O2)/C=C/C=C/C[C@@H](C)OC(=O)C[C@H]1O [Isovaleryl spiramycin I, isovaleryl spiramycin I]
[1]; 769-P nude mice, 25 mg/kg
  Inhibition Rate (%): 33.68%
  Relative Tumor Proliferation Rate (T/C): 75.78%
  Relative Tumor Volume (RTV): 13.99 ± 3.52
  Tumor Weight: 1.37 ± 0.55 g
  Tumor Volume (mm3) (d 1): 106.47 ± 6.86 mm3
  Tumor Volume (mm3) (d30): 1489.03 ± 450.17 mm3
[1]; 769-P nude mice, 50 mg/kg
  Inhibition Rate (%): 47.33%
  Relative Tumor Proliferation Rate (T/C): 57.12%
  Relative Tumor Volume (RTV): 10.54 ± 2.65
  Tumor Weight: 1.09 ± 0.48 g
  Tumor Volume (mm3) (d 1): 96.82 ± 8.51 mm3
  Tumor Volume (mm3) (d30): 1020.75 ± 282.92 mm3
[1]; 769-P nude mice, 100 mg/kg
  Inhibition Rate (%): 68.82%
  Relative Tumor Proliferation Rate (T/C): 36.88%
  Relative Tumor Volume (RTV): 6.81 ± 0.30
  Tumor Weight: 0.64 ± 0.01 g
  Tumor Volume (mm3) (d 1): 103.26 ± 9.71 mm3
  Tumor Volume (mm3) (d30): 702.74 ± 37.66 mm3
[1]; [4]
  Relative Tumor Proliferation Rate (T/C): 36.88%
  tumor growth inhibition rate: 68.82%
[1]; [5]
  Relative Tumor Proliferation Rate (T/C): 75.78%
  tumor growth inhibition rate: 33.68%
[1]; 769-P, low, medium and high doses, P<0.05
  tumor volume and relative tumor volume compared with the model group: significantly lower
[1]; [6]
  Relative Tumor Proliferation Rate (T/C): 57.12%
  tumor growth inhibition rate: 47.33%
[1]; mouse, in vivo
  mouse weight compared with the model group: no significant changes
[1]; mouse, in vivo, 25 mg/kg
  Body Weight (g) (d1): 21.44 ± 1.45 g
  Body Weight (g) (d30): 21.87 ± 0.89 g
[1]; mouse, in vivo, 50 mg/kg
  Body Weight (g) (d1): 21.79 ± 1.37 g
  Body Weight (g) (d30): 22.00 ± 0.94 g
[1]; mouse, in vivo, 100 mg/kg
  Body Weight (g) (d1): 21.39 ± 1.24 g
  Body Weight (g) (d30): 21.88 ± 0.54 g
[2]; [7]
  Relative Tumor Proliferation Rate (T/C): 32.70%
  tumor growth inhibition rate: 64.19%
[2]; [8]
  Relative Tumor Proliferation Rate (T/C): 84.96%
  tumor growth inhibition rate: 11.57%
[2]; HL-60, low, medium and high doses, P<0.05
  tumor volume and relative tumor volume compared with the model group: significantly lower
[2]; [9]
  Relative Tumor Proliferation Rate (T/C): 59.54%
  tumor growth inhibition rate: 34.78%
[2]; dose 25 mg/kg
  Inhibition Rate (%): 11.57%
  Relative Tumor Proliferation Rate (T/C): 84.96%
  Relative Tumor Volume (RTV): 9.56 ± 2.41
  Tumor Weight: 2.00 ± 0.34 g
  Tumor Volume (mm3) (d 1): 182.56 ± 25.80 mm3
  Tumor Volume (mm3) (d30): 1702.01 ± 305.75 mm3
[2]; dose 50 mg/kg
  Inhibition Rate (%): 34.78%
  Relative Tumor Proliferation Rate (T/C): 59.54%
  Relative Tumor Volume (RTV): 6.70 ± 2.58
  Tumor Weight: 1.48 ± 0.38 g
  Tumor Volume (mm3) (d 1): 189.04 ± 24.48 mm3
  Tumor Volume (mm3) (d30): 1230.70 ± 332.94 mm3
[2]; dose 100 mg/kg
  Inhibition Rate (%): 64.19%
  Relative Tumor Proliferation Rate (T/C): 32.70%
  Relative Tumor Volume (RTV): 3.68 ± 2.51
  Tumor Weight: 0.81 ± 0.42 g
  Tumor Volume (mm3) (d 1): 183.82 ± 20.41 mm3
  Tumor Volume (mm3) (d30): 657.95 ± 411.53 mm3
[2]; mouse, in vivo
  mouse weight compared with the model group: no significant changes
[2]; mouse, in vivo, 25 mg/kg
  Body Weight (g) (d1): 20.75 ± 1.20 g
  Body Weight (g) (d30): 20.66 ± 1.08 g
[2]; mouse, in vivo, 50 mg/kg
  Body Weight (g) (d1): 20.4 ± 1.60 g
  Body Weight (g) (d30): 20.35 ± 1.20 g
[2]; mouse, in vivo, 100 mg/kg
  Body Weight (g) (d1): 20.63 ± 1.33 g
  Body Weight (g) (d30): 20.56 ± 1.77 g
[3]; 13, 26 and 52 mg/kg i.g. 7 days
  growth of H22 liver cancer in mice: significantly inhibit
[3]; dose 12.5 mg/kg
  Relative Tumor Proliferation Rate (T/C): 54.47
  Relative Tumor Volume (RTV): 5.41 ± 1.42
  Tumor Volume (mm3) (d 1): 120.26 ± 24.42 mm3
  Tumor Volume (mm3) (d30): 657.57 ± 231.56 mm3
[3]; dose 13 mg/kg
  Inhibition Rate (%): 42.11%
  Tumor: 0.88 ± 0.38 g
[3]; dose 25 mg/kg
  Relative Tumor Proliferation Rate (T/C): 48.27
  Relative Tumor Volume (RTV): 4.79 ± 0.64
  Tumor Volume (mm3) (d 1): 118.32 ± 11.90 mm3
  Tumor Volume (mm3) (d30): 563.69 ± 463.08 mm3
[3]; dose 26 mg/kg
  Inhibition Rate (%): 55.26%
  Tumor: 0.68 ± 0.24 g
[3]; dose 50 mg/kg
  Relative Tumor Proliferation Rate (T/C): 29.78
  Relative Tumor Volume (RTV): 2.96 ± 0.39
  Tumor Volume (mm3) (d 1): 120.68 ± 13.76 mm3
  Tumor Volume (mm3) (d30): 359.74 ± 480.81 mm3
[3]; dose 52 mg/kg
  Inhibition Rate (%): 65.79%
  Tumor: 0.52 ± 0.68 g
[3]; 13 mg/kg
  Body Weight (g) (d1): 24.55 ± 1.00 g
  Body Weight (g) (d 7): 26.23 ± 0.79 g
[3]; 26 mg/kg
  Body Weight (g) (d1): 23.83 ± 2.36 g
  Body Weight (g) (d 7): 26.68 ± 1.85 g
[3]; 52 mg/kg
  Body Weight (g) (d1): 24.02 ± 2.83 g
  Body Weight (g) (d 7): 27.87 ± 1.57 g
